{"source": "paper PMC8811960", "about": "“A Novel 2-Carbon-Linked Dimeric Artemisinin With Potent Antileukemic Activity and Favorable Pharmacology” (Frontiers in Oncology, 2022)", "key": {"MOLM14 AML xenografts": {"system": "MOLM14 AML xenografts", "experiment": "luc-labeled MOLM14 AML cell line xenograft", "format": "in vivo, NRG mice", "details": "15 mg/kg/d PO, 5 days on, 9 days off, 5 cycles", "text": "Immunodeficient NOD-Rag1^nullIL2rg^null (NRG) mice were purchased from Jackson Laboratory (Bar Harbor, ME), bred and housed at the University of Maryland Baltimore. Similar to our previous publication ([20]). mice were transplanted IV with luc-labeled human AML cell lines or cryopreserved AML patient cells on day -10, and baseline total body luminescence was quantified on day 0 by Xenogen bioluminescence imaging (Xenogen IVIS Spectrum; PerkinElmer, Waltham, MA). Mice were allocated to treatment groups so that each group had similar average day 0 luminescence, then groups were administered drugs per oral (PO; gavage). Luminescence of each mouse was assessed over time and compared with that mouse’s day 0 luminescence (fold-change AML burden). Clinical behavior, appearance, weight, and survival were also monitored.\nUsing our previously determined 5-day MTD SAV drug schedule (i.e. 5-day treatment cycles consisting of 15 mg/kg/d ART631 combined with 150 mg/kg/d VEN and 30 mg/kg/d SOR, followed by 9 days off drug; schematic in Figure 7A ), we assessed treatment of established human luc-labeled MV4;11 ( Figures 7B–D ) and MOLM14 AML ( Figures 8A–C ) cell line xenografts with VEN plus SOR plus ART631 in NRG mice ( Figures 7B , 8A ). […]"}, "MOLM14 cells": {"system": "MOLM14 cells", "experiment": "Total cellular ROS (CM-H2DCFDA flow cytometry)", "format": "cell-based, human", "details": "MOLM14, 200 nM, 18h", "experimental": "[…] Cells were then treated with ART631 (200 nM) or DMSO control for 18h, with subsequent analysis by flow cytometry. Western blotting and quantitative reverse transcription PCR (qRT-PCR) to assess for molecular markers of ROS-mediated apoptosis were performed as previously described ([20]).\nFigure 4 ART631 elevated ROS and CHOP levels and reduced MCL1 expression in MOLM14 AML cells. […] They were then analyzed by flow cytometry. Graph represents %CM-H2DCFDA fluorescence compared to vehicle (DMSO) control treated cells. Error bars represent SD from 3 independent experiments. (B) MOLM14 AML cells were treated for 18h with vehicle, AS (10 uM), ART838 (200 nM), ART631 (200 nM), cytarabine (AraC; 150 nM), or SOR (5 uM). Protein was isolated and western blotted for MCL1, BCL2, CHOP, and β-actin. (C) MOLM14 cells were treated as in (B) for 18h, total RNA isolated, cDNA synthesized, and SYBR Green qRT-PCR performed in triplicates. Ct values were normalized to housekeeping gene GAPDH and fold change shown relative to vehicle (DMSO) control. Error bars represent SD from 3 independent experiments done in triplicate."}, "[1]": {"system": "C/EBP homologous protein (CHOP)", "experiment": "Western blot for CHOP", "format": "cell-based, human", "details": "MOLM14, 200 nM, 18h, similar results in MV4;11 and ML2", "experimental": "(§1) Cells were pre-treated with […] ROS detection reagent 5-(and 6-)-chloromethyl-2’,7’-dichlorodihydrofluorescein diacetate (CM-H2DCFDA, Life Technologies) for 30 min, followed by the iron chelator deferoxamine mesylate (DFO; 11 mM) for 60 min. Cells were then treated with ART631 (200 nM) or DMSO control for 18h, with subsequent analysis by flow cytometry. Western blotting and quantitative reverse transcription PCR (qRT-PCR) to assess for molecular markers of ROS-mediated apoptosis were performed as previously described ([20]).\nFigure 4 ART631 elevated ROS and CHOP levels and reduced MCL1 expression in MOLM14 AML cells. (A) MOLM14 AML cells were pre-treated with ROS detection reagent CM-H2DCFDA ([…]) for 30 min, pre-treated with deferoxamine mesylate (DFO; 11 mM) for 60 min, and then treated with ART631 (200 nM) or DMSO control for 18h. They were then analyzed by flow cytometry. Graph represents %CM-H2DCFDA fluorescence compared to vehicle (DMSO) control treated cells. Error bars represent SD from 3 independent experiments. (B) MOLM14 AML cells were treated for 18h with vehicle, AS (10 uM), ART838 (200 nM), ART631 (200 nM), cytarabine (AraC; 150 nM), or SOR (5 uM). Protein was isolated and western blotted for MCL1, BCL2, CHOP, and β-actin. (C) MOLM14 cells were treated as in (B) for 18h, total RNA isolated, cDNA synthesized, and SYBR Green qRT-PCR performed in triplicates. […]"}, "DDIT3": {"system": "DDIT3", "experiment": "qRT-PCR for DDIT3 mRNA", "format": "cell-based, human", "details": "MOLM14, 18h, ART631 200 nM, ART838 200 nM, AS 10 uM, similar results in MV4;11 and ML2", "experimental": "as §1\nFigure 4 ART631 elevated ROS and CHOP levels and reduced MCL1 expression in MOLM14 AML cells. (A) MOLM14 AML cells were pre-treated with ROS detection reagent CM-H2DCFDA ([…]) for 30 min, pre-treated with deferoxamine mesylate (DFO; 11 mM) for 60 min, and then treated with ART631 (200 nM) or DMSO control for 18h. They were then analyzed by flow cytometry. Graph represents %CM-H2DCFDA fluorescence compared to vehicle (DMSO) control treated cells. Error bars represent SD from 3 independent experiments. (B) MOLM14 AML cells were treated for 18h with vehicle, AS (10 uM), ART838 (200 nM), ART631 (200 nM), cytarabine (AraC; 150 nM), or SOR (5 uM). Protein was isolated and western blotted for MCL1, BCL2, CHOP, and β-actin. (C) MOLM14 cells were treated as in (B) for 18h, total RNA isolated, cDNA synthesized, and SYBR Green qRT-PCR performed in triplicates. Ct values were normalized to housekeeping gene GAPDH and fold change shown relative to vehicle (DMSO) control. Error bars represent SD from 3 independent experiments done in triplicate."}}, "data": [{"smiles": "C=CCO/N=C(/C[C@H]1O[C@@H]2O[C@@]3(C)CC[C@H]4[C@H](C)CC[C@@H]([C@H]1C)[C@@]24OO3)[C@H]1O[C@@H]2O[C@@]3(C)CC[C@H]4[C@H](C)CC[C@@H]([C@H]1C)[C@@]24OO3", "note": "[ART631]", "values": [{"measurement": "antileukemic activity of monotherapy", "setting": "MOLM14 AML xenografts", "result": "no activity"}, {"measurement": "total cellular ROS levels", "setting": "MOLM14 cells", "result": "substantially increased"}, {"measurement": "level of CHOP protein", "setting": "[1]", "result": "increase"}, {"measurement": "DDIT3 mRNA", "setting": "DDIT3", "result": "increased"}]}]}
